Measured values published in patent publication US20210353633A1, “CYCLODEXTRIN-BASED FORMULATION OF A BCL-2 INHIBITOR” (LES LABORATOIRES SERVIER, priority 2018, published 2021).
In brackets after ≈: the same amount, converted by molar mass. Where two headings read alike, the source gives them in different places.

Tests used:
[1] = Aqueous solubility of Compound A; type: physicochemical; details: aqueous medium, aqueous buffer; at pH=2.5
From the text: In order to enable safe and effective administration of Compound A, and to elicit the required therapeutic effects, Compound A needs to be solubilized at higher concentration than its aqueous solubility.

[2] = Solubility test in various carriers (Example 1); type: physicochemical; details: thermodynamic from solid; for solubility at 2 h: read-out: Solubility after 2 h; for solubility at 24 h: read-out: Solubility after 24 h
Description: The solubility of ‘Compound A, H2SO4’ was studied in various media, including: • citrate buffer (pH=2; 50 mM), acetate buffer (pH=4; 50 mM) and phosphate buffer (pH=6-7.4; 67.7 mM); • cyclodextrins of the type sulfobutyl ether β-cyclodextrin (SBE-β-cyclodextrin) or hydroxypropyl β-cyclodextrin (HP-β-cyclodextrin); more precisely, the SBE-β-cyclodextrin tested is Dexsolve™ marketed by Cyclolab, while the HP-β-cyclodextrins tested are Cavitron™ W7HP7 and Cavitron™ W7HP5 marketed by Wacker; Kleptose™ HP and Kleptose™ HPB marketed by Roquette; • surfactants such as polysorbate 80 and Kolliphor™ ELP; • the mixture PEG400/ethanol/0.9% NaCl (40/10/50).
5 g of the cyclodextrin studied (Dexsolve™, Cavitron™ W7HP7, Cavitron™ W7HP5, Kleptose™ HP or Kleptose™ HPB) are weighed into a […] graduated flask. Approximately 15 mL of water are added and the whole obtained is subjected to magnetic stirring. The volume is then made up to 25 mL by the addition of water. The whole is placed under magnetic stirring for 10 minutes.
1 g of the surfactant studied is weighed into a 50 mL graduated flask. The volume is then made up to 50 mL by means of 0.9% NaCl solution. The whole is placed under magnetic stirring for 1 hour.
20 mL of PEG 400, 5 mL of ethanol and 25 mL of NaCl are taken. The whole is placed in a 100 mL Erlenmeyer flask and stirred magnetically for 30 minutes.
Approximately 340 mg of ‘Compound A, H2SO4’ are weighed into a 5 mL tube. 3 mL of the medium containing the carrier to be tested are then added. The whole is then placed under magnetic stirring for 2 hours or 24 hours. The suspension or solution so obtained is passed through a 0.2 μm filter (PVDF membrane—Millipore) before being analysed by HPLC. In addition, the presence of degradation products of Compound A was investigated in the samples stored for 72 hours at ambient temperature.

[3] = PK parameters in RS4;11 grafted female SCID mice; type: in vivo; details: one i.v. treatment; for Co / tlast / concentration at 6 h / AUC / half-life: 20% HP-β-cyclodextrin solution; for concentration at 6 h / AUC / half-life / AUC(0-t): female, SCID, mouse, blood; for concentration at 6 h: intravenous, read-out: Clast; for AUC / half-life / AUC(0-t): iv; for half-life: read-out: t1/2, z (converted); for AUC(0-t): administration to the last point
Description: RS4;11 cell line, obtained from ATCC, were subcutaneously injected into female SCID mice, provided by Charles River. When tumors reached the appropriate tumor volume, mice were randomized using Easy stat software. […]
In a 100 mL flask, introduce 20 g of Cavitron™ W7HP5 and add around 75 mL of a solution water/0.9% NaCl (70/30, v/v). Stir for 15 minutes at room temperature. Then, make up the solution to a volume of 100 mL by adding the previous solution water/0.9% NaCl, while maintaining magnetic stirring. Weigh the necessary amount of ‘Compound A, H2SO4’ and dissolve it with the previous 20% w/v Cavitron™ W7H5 solution. Heat the whole at 60° C. under vigorous magnetic stirring until solubilisation of the components of the mixture is complete. Measure the pH of the solution obtained. Adjust the pH to 3 by adding drop by drop, either HCl 0.1N or NaOH 0.1N, depending on the concentration of Compound A. Stir the mixture at least for 1 hour. Filtrate the obtained solution with a 0.2 μm-filter.
A 20% w/v Cavitron™ W7H5 solution containing a dose of 4 mg/mL of Compound A was prepared following this procedure. A second solution containing a dose of 1.5 mg/mL of Compound A was also prepared by diluting further the previous solution with the 20% w/v Cavitron™ W7H5 solution.

[4] = 2% Kolliphor ELP solution, aqueous with cosolvent or surfactant or cyclodextrin, carrier: 2% Kolliphor ELP
[5] = 2% Polysorbate 80 solution, aqueous with cosolvent or surfactant or cyclodextrin, carrier: 2% Polysorbate 80
[6] = aqueous buffer, carrier: Acetate buffer (pH=4; 50 mM)
[7] = aqueous buffer, carrier: Citrate buffer (pH=2; 50 mM)
[8] = aqueous buffer, carrier: Phosphate buffer (pH=6-7.4; 67.7 mM)
[9] = aqueous with cosolvent or surfactant or cyclodextrin, carrier: Cavitron W7HP5, 20% by weight cyclodextrin solution
[10] = aqueous with cosolvent or surfactant or cyclodextrin, carrier: Cavitron W7HP7, 20% by weight cyclodextrin solution
[11] = aqueous with cosolvent or surfactant or cyclodextrin, carrier: Dexsolve, 20% by weight cyclodextrin solution
[12] = aqueous with cosolvent or surfactant or cyclodextrin, carrier: PEG400/EtOH/0.9% NaCl (40/10/50)
[13] = organic solvent or mixture, carrier: Absolute ethanol
[14] = organic solvent or mixture, carrier: PEG 400

solubility [1]: 1400 µg/mL (≈ 1.95 mM)
solubility at 2 h [2, 4]: 2080 µg/mL (≈ 2.9 mM)
solubility at 24 h [2, 4]: 1740 µg/mL (≈ 2.43 mM)
solubility at 2 h [2, 5]: 2300 µg/mL (≈ 3.21 mM)
solubility at 24 h [2, 5]: 1960 µg/mL (≈ 2.73 mM)
solubility at 2 h [2, 6]: 200 µg/mL (≈ 0.279 mM)
solubility at 24 h [2, 6]: 180 µg/mL (≈ 0.251 mM)
solubility at 2 h [2, 7]: 240 µg/mL (≈ 0.335 mM)
solubility at 24 h [2, 7]: 250 µg/mL (≈ 0.349 mM)
solubility at 2 h [2, 8]: 210 µg/mL (≈ 0.293 mM)
solubility at 24 h [2, 8]: 520 µg/mL (≈ 0.725 mM)
solubility at 2 h [2, 9]: 25200 µg/mL (≈ 35.1 mM)
solubility at 24 h [2, 9]: 30200 µg/mL (≈ 42.1 mM)
solubility at 2 h [2, 10]: 17900 µg/mL (≈ 24.9 mM)
solubility at 24 h [2, 10]: 21200 µg/mL (≈ 29.5 mM)
solubility at 2 h [2, 11]: 23400 µg/mL (≈ 32.7 mM)
solubility at 24 h [2, 11]: 23200 µg/mL (≈ 32.3 mM)
solubility at 24 h ([2]; aqueous with cosolvent or surfactant or cyclodextrin, carrier: Kleptose HP, 20% by weight cyclodextrin solution): 25000 to 26000 µg/mL (≈ 34.9 to 36.2 mM)
solubility at 24 h ([2]; aqueous with cosolvent or surfactant or cyclodextrin, carrier: Kleptose HPB, 20% by weight cyclodextrin solution): 30000 to 31000 µg/mL (≈ 41.8 to 43.2 mM)
solubility at 2 h [2, 12]: 10300 µg/mL (≈ 14.4 mM)
solubility at 24 h [2, 12]: 10800 µg/mL (≈ 15 mM)
solubility at 2 h [2, 13]: 1060 µg/mL (≈ 1.48 mM)
solubility at 24 h [2, 13]: 1130 µg/mL (≈ 1.58 mM)
solubility at 2 h [2, 14]: 11700 µg/mL (≈ 16.3 mM)
solubility at 24 h [2, 14]: 11200 µg/mL (≈ 15.6 mM)
solubility at 2 h ([2]; carrier: Water): 2870 µg/mL (≈ 4 mM)
solubility at 24 h ([2]; carrier: Water): 1560 µg/mL (≈ 2.17 mM)
AUCt/Dose ([3]; 15 mg/kg): 1360 ng·h/mL per mg/kg
Co ([3]; 15 mg/kg): 14692 ng/mL
tlast ([3]; 15 mg/kg): 6 h
AUCt/Dose ([3]; 40 mg/kg): 1140 ng·h/mL per mg/kg
Co ([3]; 40 mg/kg): 23290 ng/mL
tlast ([3]; 40 mg/kg): 6 h
concentration at 6 h ([3]; 15 mg/kg): 58.4 ng/mL
concentration at 6 h ([3]; 40 mg/kg): 457 ng/mL
AUC ([3]; 15 mg/kg): 20500 ng·h/mL
half-life ([3]; 15 mg/kg): 45.6 min
AUC ([3]; 40 mg/kg): 46500 ng·h/mL
half-life ([3]; 40 mg/kg): 66 min
AUC(0-t) ([3]; 15 mg/kg): 20400 ng·h/mL
AUC(0-t) ([3]; 40 mg/kg): 45800 ng·h/mL
Compound: Cc1c(N(C(=O)c2cc(-c3cc(Cl)ccc3C(=O)N3Cc4ccccc4C[C@H]3CN3CCOCC3)n(C)c2C)c2ccc(O)cc2)cc(C#N)n1C [Compound A, H2SO4, 5-(5-chloro-2-{[(3S)-3-(morpholin-4-ylmethyl)-3,4-dihydroisoquinolin-2(1H)-yl]carbonyl}phenyl)-N-(5-cyano-1,2-dimethyl-1H-pyrrol-3-yl)-N-(4-hydroxyphenyl)-1,2-dimethyl-1H-pyrrole-3-carboxamide]
